{"source": "patent EP2929785A1", "about": "“A PLA inhibitor for inhibition of fat absorption” (PAT GmbH, priority 2014, dated 2015)", "key": {"wild-type hepatocytes": {"tested_on": "wild-type hepatocytes", "test": "Fatty acid influx in primary hepatocytes from wild-type mice", "assay_type": "cell-based", "conditions": "UDCA-LPE pretreatment (Fig. 4B)"}, "[1]": {"biological_target": "T1, fatty acid uptake complex in the DRM-PM consisting of CD36, FABPPM, caveolin1, and iPLA2ß (Homo sapiens, UniProt O60733)", "T1 construct": "western blotting of DRM-PM isolated from these cells; endogenous in cells; host or cells: HepG2", "T1 sequence (O60733 1-806)": "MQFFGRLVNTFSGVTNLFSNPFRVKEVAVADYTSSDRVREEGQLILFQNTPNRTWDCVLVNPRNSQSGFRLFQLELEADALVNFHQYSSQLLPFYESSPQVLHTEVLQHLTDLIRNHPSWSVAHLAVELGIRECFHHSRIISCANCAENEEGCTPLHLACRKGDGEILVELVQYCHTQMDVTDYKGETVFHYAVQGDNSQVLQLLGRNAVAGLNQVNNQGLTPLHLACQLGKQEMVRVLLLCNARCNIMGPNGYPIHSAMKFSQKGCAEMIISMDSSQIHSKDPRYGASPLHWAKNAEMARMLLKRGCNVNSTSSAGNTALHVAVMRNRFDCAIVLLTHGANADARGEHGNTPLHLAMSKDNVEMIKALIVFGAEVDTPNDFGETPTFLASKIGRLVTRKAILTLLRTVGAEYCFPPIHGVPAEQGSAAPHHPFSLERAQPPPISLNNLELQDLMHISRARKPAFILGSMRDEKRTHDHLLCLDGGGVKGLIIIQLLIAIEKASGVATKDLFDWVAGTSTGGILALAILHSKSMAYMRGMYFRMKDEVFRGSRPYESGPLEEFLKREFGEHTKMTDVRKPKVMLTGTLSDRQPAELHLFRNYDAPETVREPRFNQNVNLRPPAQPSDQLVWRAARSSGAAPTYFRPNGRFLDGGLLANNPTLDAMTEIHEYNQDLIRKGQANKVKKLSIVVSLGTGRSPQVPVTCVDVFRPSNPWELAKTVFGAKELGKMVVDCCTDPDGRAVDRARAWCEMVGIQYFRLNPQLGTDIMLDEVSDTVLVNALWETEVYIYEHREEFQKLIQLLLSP", "test": "Disassembly of the fatty acid uptake complex in DRM-PM of HepG2 cells (immunoprecipitation, western blotting)", "assay_type": "cell-based", "experimental": "Detergent-resistant PM (DRM-PM) and non-DRM-PM fractions were isolated and characterized as previously described (Pohl J et al. Mol Biol Cell. 2005; 16: 24-31). Subcellular membrane fractions were prepared by centrifugation at 100,000 g for 1 h to obtain homogenate pellets. Nuclear extracts were obtained by centrifugation at 500 g for 5 min. Pellets were washed and resuspended in a buffer solution containing […] (pH 7.4), 100 mM NaCl, and 0.1 mM EDTA (Marzluff WF et al. Meth Cell Biol. 1987; 317-331)). The protein concentration was determined by the Bradford method (Bio- Rad, Munich, Germany).\nImmunoblotting was performed according to a standard protocol as set out in Sun Q., et al. Biol Med (Maywood). 2012; 237: 178-185. […] To estimate the protein concentration a semi-quantitative densitometry was performed as described in Sun Q et al. (loc cit.). […]"}, "HepG2 cells": {"tested_on": "HepG2 cells", "test": "Cellular steatohepatitis model in HepG2 cells", "assay_type": "cell-based, human", "conditions": "UDCA-LPE 100 µM, 1 h, before or after 3 h 400 µM oleate:albumin (4:1)", "experimental": "To induce steatosis, HepG2 cells were incubated with 400 µM oleate:albumin (4:1) for 3 h. The effect of UDCA-LPE (100 µM; 1 h) relative to PBS (control) was examined by pretreating cells before or after the 3- h fatty acid feeding period (with continuous fatty acid feeding thereafter). Fatty acid loading was examined by staining cells with Oil Red (Sigma) and by immunodetection of triglycerides (ab65336; Abcam, Cambridge, UK). In addition, the release of lactate dehydrogenase (LDH) (11644793001; Roche, Mannheim, Germany) was determined as a measure of apoptosis."}, "CaCo2 cells": {"tested_on": "CaCo2 cells", "test": "Fatty acid influx in CaCo2 cells", "assay_type": "cell-based"}, "[2]": {"biological_target": "T2, four-protein fatty acid uptake complex within the DRM-domain of CaCo2 plasma membranes (Homo sapiens, UniProt O60733)", "T2 construct": "the DRM domains of the plasma membrane were isolated from native CaCo2 cells; endogenous in cells; host or cells: CaCo2", "T2 sequence (O60733 1-806)": "T1 sequence (O60733 1-806)", "test": "Disintegration of the fatty acid uptake complex in CaCo2 cells", "assay_type": "cell-based", "experimental": "All other experiments were assessed with CaCo2 cells as described in Ex. 1, mutatis mutandis."}}}
{"substance": "ursodeoxycholatelysophosphatidylethanolamide [UDCA-LPE]", "values": [{"measurement": "fatty acid influx", "setting": "wild-type hepatocytes", "result": "inhibited"}, {"measurement": "incubation time at which the fatty acid uptake complex began to disassemble", "setting": "[1]; 50 µM", "result": "≥ 30", "unit": "min"}, {"measurement": "concentration at which the fatty acid uptake complex began to disassemble", "setting": "[1]; 30 min of incubation", "result": "≥ 50", "unit": "µM"}, {"measurement": "fatty acid-induced inflammation (LDH release)", "setting": "HepG2 cells", "result": "prevented or reversed"}, {"measurement": "steatosis", "setting": "HepG2 cells", "result": "prevented or reversed"}, {"measurement": "apical fatty acid influx", "setting": "CaCo2 cells; CaCo2 cells cultured 21 days (polarized), pretreatment at the apical site", "result": "significantly inhibited"}, {"measurement": "inhibition of fatty acid influx", "setting": "CaCo2 cells; UDCA-LPE 100 µM, 1 h, scrambled siRNA control conditions", "result": "> 50", "unit": "%"}, {"measurement": "fatty acid influx kinetics", "setting": "CaCo2 cells; preincubation of CaCo2 cells", "result": "non-competitive inhibition"}, {"measurement": "minimal concentration for disintegration of the complex", "setting": "[2]", "result": 50, "unit": "µM"}, {"measurement": "exposure time for disintegration of the complex", "setting": "[2]; 50 µM", "result": 30, "unit": "min"}]}
